The test system of this assay is P. falciparum stage V gametocytes, BacTiter-Glo ATP, 24 h. Briefly: viability inhibitors of stage V gametocytes – luminescence, dose response (AID 1117278).

Our source for the IC50 values is PubChem BioAssay AID1117278 (The Scripps Research Institute Molecular Screening Center, 2014).

Each structure is given as a SMILES string. Activity calls are given as the source filed them. How the calls were made is not given here.

`O=C(C[N+]12CCC(CC1)C(OC(=O)c1ccccc1)C2)c1ccc([N+](=O)[O-])cc1` (stereo unspecified): the IC50 was > 109 µM (inactive).
